Test results: US10858347B2, “Multicyclic compounds and uses thereof” (Karyopharm Therapeutics Inc., priority 2015, dated 2020)
Where two headings read alike, the source gives them in different places.

Columns and labels:
Z138 cells = assay: MTT cell proliferation assay, Z138 cells; assay type: cell-based, human; details: Z138 cells (mature B-cell acute lymphoblastic leukemia cell line), approximately 64-72 hours incubation
Experimental: (§1) The MTT cell proliferation assay was used to study the cytotoxic properties of the compounds. The assay was performed according to the method described by Roche Molecular Biochemicals, with minor modifications. The assay is based on the cleavage of the tetrazolium salt, MTT, in the presence of an electron-coupling reagent. The water-insoluble formazan salt produced must be solubilized in an additional step. Cells grown in a 96-well tissue culture plate were incubated with the MTT solution for approximately 4 hours. After this incubation period, a water-insoluble formazan dye formed. After solubilization, the formazan dye was quantitated using a scanning multi-well spectrophotometer (ELISA reader). […] The cells were seeded at 5,000-10,000 cells in each well of 96-well plate in 100 μL of fresh culture medium and were allowed to attach overnight. The stock solutions of the compounds were diluted in 100 μL cell culture medium to obtain eight concentrations of each test compound, ranging from 1 nM to 30 μM. […] All optical densities were measured at 490 nm using a Vmax Kinetic Microplate Reader (Molecular Devices). In most cases, the assay was performed in duplicate and the results were presented as a mean percent inhibition to the negative control±SE. The following formula was used to calculate the percent of inhibition: Inhibition (%)=(1−(ODo/OD))×100.
(§2) The compounds were tested against MS751, Z138 and 3T3 cells. The MS751 cell line is derived from a metastasis to lymph node of human cervix from a patient diagnosed with squameous cell carcinoma of the cervix. The Z138 cell line is a mature B-cell acute lymphoblastic leukemia cell line derived from a patient with chronic lumphocytic leukemia. 3T3 cells are standard fibroblast cells; they were originally isolated from Swiss mouse embryo tissue.

3T3 cells = assay: MTT cell proliferation assay, 3T3 cells; assay type: cell-based; details: 3T3 cells (standard fibroblast cells, Swiss mouse embryo), approximately 64-72 hours incubation
Experimental: as §1, §2

Molecule	IC50 (Z138 cells; read-out: Z-138 MTT (IC50; μM))	IC50 (3T3 cells)	IC50 (Z138 cells; Homo sapiens, Z-138)	IC50 (3T3 cells; NIH3T3)
1-((6-aminopyridin- 3-yl)methyl)-3-(2-((4- (4,4-difluoropiperidine- 1-carbonyl)-4″- fluoro-[1,1′:3′,1″- terphenyl]-4′- yl)oxy)ethyl)urea [Compound 124]	< 0.1 µM	> 10 µM		
O=C(NCc1cccnc1)NCc1cc2cc(-c3ccc(C(=O)N4CCC(F)(F)CC4)cc3)cc(-c3ccc(F)cc3)c2o1 [Compound 104, 1-((5-(4-(4,4-difluoropiperidine-1-carbonyl)phenyl)-7-(4-fluorophenyl)benzofuran-2-yl)methyl)-3-(pyridin-3-ylmethyl)urea]			< 0.1 µM	0.1 to 5 µM
O=C(NCc1cc2cc(-c3ccc(C(=O)N4CCC(F)(F)CC4)cc3)cc(C(F)(F)F)c2o1)N1Cc2ccncc2C1 [Compound 105, N-((5-(4-(4,4-difluoropiperidine-1-carbonyl)phenyl)-7-(trifluoromethyl)benzofuran-2-yl)methyl)-1H-pyrrolo[3,4-c]pyridine-2(3H)-carboxamide]			0.1 to 5 µM	> 10 µM
O=C(NCc1cc2cc(-c3ccc(C(=O)N4CC(F)(F)C4)cc3)cc(C(F)(F)F)c2o1)N1Cc2ccncc2C1 [Compound 106, N-((5-(4-(3,3-difluoroazetidine-1-carbonyl)phenyl)-7-(trifluoromethyl)benzofuran-2-yl)methyl)-1H-pyrrolo[3,4-c]pyridine-2(3H)-carboxamide]			> 10 µM	> 10 µM
CN(Cc1cc2cc(-c3ccc(C(=O)N4CCC(F)(F)CC4)cc3)cc(-c3ccc(F)cc3)c2o1)C(=O)N1Cc2ccncc2C1 [Compound 109, N-((5-(4-(4,4-difluoropiperidine-1-carbonyl)phenyl)-7-(4-fluorophenyl)benzofuran-2-yl)methyl)-N-methyl-1H-pyrrolo[3,4-c]pyridine-2(3H)-carboxamide]			< 0.1 µM	0.1 to 5 µM
O=C(NCc1cc2cc(-c3ccc(C(=O)N4CCC(F)(F)CC4)cn3)cc(-c3ccc(F)cc3)c2o1)N1Cc2ccncc2C1 [Compound 110, N-((5-(5-(4,4-difluoropiperidine-1-carbonyl)pyridin-2-yl)-7-(4-fluorophenyl)benzofuran-2-yl)methyl)-1H-pyrrolo[3,4-c]pyridine-2(3H)-carboxamide]			< 0.1 µM	< 0.1 µM
O=C(NCc1cc2cc(-c3ccc(C(=O)N4CCC(F)(F)CC4)cc3)cc(-c3ccc(F)cc3)c2s1)N1Cc2ccncc2C1 [Compound 111, N-((5-(4-(4,4-difluoropiperidine-1-carbonyl)phenyl)-7-(4-fluorophenyl)benzo[b]thiophen-2-yl)methyl)-1H-pyrrolo[3,4-c]pyridine-2(3H)-carboxamide]			< 0.1 µM	> 10 µM
Nc1ccc(CNC(=O)NCc2cc3cc(-c4ccc(C(=O)N5CCC(F)(F)CC5)cc4)cc(-c4ccc(F)cc4F)c3o2)cn1 [Compound 112, 1-((6-aminopyridin-3-yl)methyl)-3-((7-(2,4-difluorophenyl)-5-(4-(4,4-difluoropiperidine-1-carbonyl)phenyl)benzofuran-2-yl)methyl)urea]			< 0.1 µM	0.1 to 5 µM
Nc1ccc(CNC(=O)NCc2cc3cc(-c4ccc(C(=O)N5CCC(F)(F)CC5)cc4)cc(C(F)(F)F)c3o2)cn1 [Compound 113, 1-((6-aminopyridin-3-yl)methyl)-3-((5-(4-(4,4-difluoropiperidine-1-carbonyl)phenyl)-7-(trifluoromethyl)benzofuran-2-yl)methyl)urea]			> 10 µM	> 10 µM
Nc1ccc(CNC(=O)NCc2cc3cc(-c4ccc(C(=O)N5CCC(F)(F)CC5)cc4)cc(-c4ccc(F)cc4)c3s2)cn1 [Compound 114, 1-((6-aminopyridin-3-yl)methyl)-3-((5-(4-(4,4-difluoropiperidine-1-carbonyl)phenyl)-7-(4-fluorophenyl)benzo[b]thiophen-2-yl)methyl)urea]			5 to 10 µM	> 10 µM
